Assay [1] deals with Candida albicans (ATCC 90028). In words: Filter paper disk test on agar plates containing C. albicans. The note with it: 5 μL or 10 μL on paper disk, 37° C., 24-72 hours. It counts as cell-based. On the procedure: (§1) Candida albicans (ATCC 90028) and Aspergillis fumigatus (ATCC 16424) were tested in vitro for the effect of antifungal compositions according to embodiments of the invention. Fungal cells were obtained from the American Type Culture Collection.
(§2) C. Albicans yeast cells were grown in YM broth (Difco™ 0711-01) containing the following ingredients: 1% peptone, 1% yeast extract and 2% glucose. The cells were grown at 37° C., harvested by centrifugation, resuspended in the same medium and stored frozen at −80° C. The cells were used at a concentration of about 1×10^6 cells/mL. A. fumigatus was cultured on solid MPG containing 20 g/L malt extract (Difco™ 21860); 1 g/L Difco™ 211677); 20 g/L sucrose and 15 g/L Bacto-agar (Difco™ 140-07-04) in water, at 37° C. for 7 to 10 days. Conidia were harvested by flooding the medium with sterile water, filtered through glass wool to exclude hyphal fragments, washed by centrifugation (5000 xg for 10 minutes at 4° C., resuspended at about 1×10^6 conidia/mL in water and stored at −80° C. until used.
(§3) For testing, A. fumigatus conidia and C. albicans cells were thawed. […]
(§4) Samples (5 μL, 10 μL or 20 μL as indicated in the Figures) of liquid drug formulation were placed on sterile filter paper disks and the disks allowed to air dry 15-30 minutes at room temperature in a Class II biosafety hood. […] A portion of each sample was analyzed for potency. […]

Assay [2] concerns Aspergillis fumigatus (ATCC 16424). In words: Filter paper disk test on agar plates containing A. fumigatus (zone of killing). It counts as cell-based. The note with it: 5 μL or 10 μL on paper disk, 37° C., 24-72 hours. As for the experimental part:
as §1, §2, §3, §4

With `Clc1ccc(COC(Cn2ccnc2)c2ccc(Cl)cc2Cl)c(Cl)c1` (centres unmarked) [Miconazole, miconazole], in assay [1], the “killing of C. albicans (visual observation of plates)” value is “highly active”. Moreover, the “killing of A. fumigatus (visual observation of plates)” value in assay [2] is “highly active”.
